These compounds were tested on HBV (assay: HBV replication inhibition assay (BDNA assay) in HepG2.2.15 cells). Settings: Hepatitis B virus, HepG2.2.15, 144 h, 6 days treatment, encapsidated HBV DNA in supernatant by branched DNA QuantiGene assay.
Assay type: cell-based
Excerpt: HBV replication inhibition by the compounds of this invention could be determined in cells infected or transfected with HBV, or cells with stably integrated HBV, such as HepG2.2.15 cells (Sells et al. 1987). In this example, HepG2.2.15 cells were maintained in cell culture medium containing 10% fetal bovine serum (FBS), Geneticin, L-glutamine, penicillin and streptomycin. HepG2.2.15 cells could be seeded in 96-well plates at a density of 40,000 cells/well and be treated with serially diluted compounds at a final DMSO concentration of 0.5% either alone or in combination by adding drugs in a checker box format. Cells were incubated with compounds for three days, after which medium was removed and fresh medium containing compounds was added to cells and incubated for another three days. At day 6, supernatant was removed and treated with DNase at 37° C. for 60 minutes, followed by enzyme inactivation at 75° C. for 15 minutes. Encapsidated HBV DNA was released from the virions and covalently linked HBV polymerase by incubating in lysis buffer (Affymetrix QS0010) containing 2.5 μg proteinase K at 50° C. for 40 minutes. HBV DNA was denatured by addition of 0.2 M NaOH and detected using a branched DNA (BDNA) QuantiGene assay kit according to manufacturer recommendation (Affymetrix). HBV DNA levels could also be quantified using qPCR, based on amplification of encapsidated HBV DNA extraction with QuickExtraction Solution (Epicentre Biotechnologies) and amplification of HBV DNA using HBV specific PCR probes that can hybridize to HBV DNA and a fluorescently labeled probe for quantitation. In addition, cell viability of HepG2.2.15 cells incubated with test compounds alone or in combination was determined by using CellTitre-Glo reagent according to the manufacturer protocol (Promega). The mean background signal from wells containing only culture medium was subtracted from all other samples, and percent inhibition at each compound concentration was calculated by normalizing to signals from HepG2.2.15 cells treated with 0.5% DMSO using equation E1. % inhibition=(DMSOave−Xi)/DMSOave×100% E1: where DMSOave is the mean signal calculated from the wells that were treated with DMSO control (0% inhibition control) and Xi is the signal measured from the individual wells. EC50 values, effective concentrations that achieved 50% inhibitory effect, were determined by non-linear fitting using Graphpad Prism software (San Diego, Calif.) and equation E2 Y=Y min+(Y max−Y min)/(1+10(Log EC50−X)×HillSlope) E2: […]
where Y represents percent inhibition values and X represents the logarithm of compound concentrations.
Selected compounds of the invention were assayed in the HBV replication assay (BDNA assay), as described above and a representative group of these active compounds is shown in Table 3. […] In Table 3, “A” represents 0.01<EC50<0.10; “B” represents 0.10≤EC50<0.50; and “C” represents 0.50≤EC50<1.0; (‘+’ indicates >50% activity at 10 μM).

`O=C(Nc1ccnc(Cl)c1F)N1CCc2[nH]nc(C34CCCC3C4)c2C1` (stereo not drawn) [Compound 782] and `O=C(Nc1ccnc(Br)c1F)N1CCc2[nH]nc(C34CCCC3C4)c2C1` (stereo not drawn) [Compound 791] fall in the same range of EC50: 0.01 to 0.1 µM for the first, 0.01 to 0.1 µM for the second.

`Cc1cccc(NC(=O)N2CCc3[nH]nc(C45CCCC4C5)c3C2)c1` (stereo not drawn) [Compound 783] and `O=C(Nc1cccc(Br)c1)N1CCc2[nH]nc(C34CCCC3C4)c2C1` (stereo not drawn) [Compound 785] fall in the same range of EC50: 0.01 to 0.1 µM for the first, 0.01 to 0.1 µM for the second.

`O=C(Nc1cccc(Br)c1F)N1CCc2[nH]nc(C34CCCC3C4)c2C1` (stereo not drawn) [Compound 784] and `N#Cc1cccc(NC(=O)N2CCc3[nH]nc(C45CCCC4C5)c3C2)c1F` (stereo not drawn) [Compound 786] fall in the same range of EC50: 0.01 to 0.1 µM for the first, 0.01 to 0.1 µM for the second.

`O=C(Nc1ccc(F)c(Cl)c1)N1CCc2[nH]nc(C34CCCC3C4)c2C1` (stereo not drawn) [Compound 787] and `Cc1cc(NC(=O)N2CCc3[nH]nc(C45CCCC4C5)c3C2)ccc1F` (stereo not drawn) [Compound 788] fall in the same range of EC50: 0.01 to 0.1 µM for the first, 0.01 to 0.1 µM for the second.

Compared with `O=C(Nc1ccc(F)c(Br)c1)N1CCc2[nH]nc(C34CCCC3C4)c2C1` (stereo not drawn) [Compound 789], `O=C(Nc1ccc(F)c(F)c1)N1CCc2[nH]nc(C34CCCC3C4)c2C1` (stereo not drawn) [Compound 792] is higher in EC50: 0.01 to 0.1 µM for the first, 0.1 to 0.5 µM for the second. The first is the more potent here.

`N#Cc1cc(NC(=O)N2CCc3[nH]nc(C45CCCC4C5)c3C2)ccc1F` (stereo not drawn) [Compound 790] and `O=C(Nc1cccc(Cl)c1)N1CCc2[nH]nc(C3CCCO3)c2C1` (stereo not drawn) [Compound 861, N-(3-chlorophenyl)-3-tetrahydrofuran-2-yl-1,4,6,7-tetrahydropyrazolo[4,3-c]pyridine-5-carboxamide] fall in the same range of EC50: 0.01 to 0.1 µM for the first, 0.01 to 0.1 µM for the second.
